Data: paper PMC5095007, “Liposomal bortezomib is active against chronic myeloid leukemia by disrupting the Sp1-BCR/ABL axis” (Oncotarget, 2016)

Columns and labels:
[1] = tested on: BCR/ABL protein expression in K562 cells; assay: Western blotting of BCR/ABL and Sp1; assay type: cell-based
Description: Sp1 siRNA, miR-29b and their scrambles were introduced into K562 cells by Lipofectamine™ 2000 (Invitrogen) and the Western blotting was performed as previously described. The antibodies used are: Sp1, DNMT3a, β-actin and ubiquitin (Santa Cruz Biotechnology, Santa Cruz, CA); ABL, phospho-ABL, caspase-3 and caspase-8 (Cell Signaling Technology, Danvers, MA); Parp, CRKL and p-CRKL (Millipore, Billerica, MA).

K562 single tumor cells = assay: Chemosensitization of single tumor cells to doxorubicin, MTT assay; assay type: cell-based; conditions: DOX alone (no BORT), mean ±SD, n=6
Description: To investigate how L-BORT influences tumor cell growth, tumors were harvested from K562 tumor bearing mice and separated into single cells by collagenase. The single tumor cells were then cultured in RPMI1640 medium with 10% FBS and the cell survival was then evaluated in the presence of doxorubicin combined with subtoxic BORT. As shown in Figure 5C and Table 4, a synergistic effect of toxicity to single tumor cells was found between DOX and free BORT, consistent with what we have observed in K562 cells. […] L-BORT, with enhanced BORT delivery, amplified the synergy effect to approximately a 70-fold increase in chemosensitivity (p < 0.05).
K562 cells (10×10^6) were subcutaneously injected into the flank of 4-6 week old NOD/SCID mice (The Jackson Laboratory, Bar Harbor, ME). When the tumor size approached 1000 mm^3, the tumors were harvested from mouse flank and cut into pieces in PBS buffer. Collagenase was added into the above buffer and incubated for 2 hours at 37°C with shaking. The digested tumor cell suspension was filtered through a cell strainer and centrifuged at 1200 rpm for 5 minutes. The separated tumor cells were kept in cell frozen medium and stored in liquid N2 until use. […]

K562/DOX cells = assay: Chemosensitization to doxorubicin by subtoxic BORT formulations, MTT/MTS assay; assay type: cell-based; conditions: Homo sapiens, DOX alone (No BORT), mean ±SD, n=6
Description: To determine if L-BORT and Tf-L-BORT could enhance the cytotoxicity of agents used for CML therapy, we employed the MTS assay to evaluate the cytotoxic effects of doxorubicin, alone and in combination with a subtoxic BORT formulation at 2 nM to doxorubicin resistant K562/DOX cells. Initially, we determined the effects of drug treatment sequences on chemosensitivities by treating the K562/DOX cells with 100 nM doxorubicin for 24-hour before, after or simultaneous addition of subtoxic 2 or 10 nM Tf-L-BORTs followed by another 24 hour co-incubation. […] We then applied this treatment strategy to K562/DOX cells exposed to various concentrations of doxorubicin.
To evaluate BORT toxicity, K562 cells were treated by different concentration of free- or L-BORT. Regarding to the chemosensitivity to doxorubicin, the K562/ DOX cells were pre-treated with doxorubicin for 24 hours and then subtoxic BORT formulations were added for additional 24 hours. Cellular viability was assessed by MTT proliferation assays (Promega, Madison, WI).
For the studies, 24-hour treatment. At this point, 20 μL of CellTiter 96®
AQueous One Solution was added to each well and
37 °C for another 1 hour.

imatinib-refractory CML = tested on: imatinib-refractory CML; parameters: method as in PMID 21816374; conditions: pilot clinical trial, imatinib-refractory CML patients; ref [15]; cited from earlier work
K562 cells = assay: Cytotoxicity of BORT formulations, MTT/MTS cell proliferation assay; assay type: cell-based; conditions: mean ±SD, n=6
Description: To evaluate BORT toxicity, K562 cells were treated by different concentration of free- or L-BORT. […] Cellular viability was assessed by MTT proliferation assays (Promega, Madison, WI).

[2] = tested on: BCR/ABL protein expression in KU812 cells; assay: Western blotting of BCR/ABL and Sp1; assay type: cell-based; conditions: KU812, different doses of BORT for 24 hours
in vivo = conditions: ICR, mouse, plasma, iv, 1 mg/kg
Description: (§1) BORT exposure and elimination in mice were investigated following a tail vein injection of L-BORT at 1.0 mg/kg dose. […] PK parameters were obtained by Non-compartmental PK analysis in Phoenix WinNonlin.
(§2) BORT (1.0 mg/kg) was injected into ICR mice via the tail vein and blood samples were collected at various time points. Plasma was isolated by centrifugation at 1500×g for 10 minutes and stored at −20°C. Concentration of BORT in the plasma was calculated from boron concentration the sample, which was measured by coupled plasma-optical emission spectrometers (ICP-OES). For ICP-OES measurement, the plasma samples were prepared as previously described [28]. Data analysis and PK parameter calculations were carried out in Phoenix® WinNonlin® 6.3 (Certara, Princeton, NJ).

[3] = Toxicity assay in vivo in normal mice; conditions: normal BALB/cByJ mice, 2.5 mg/kg every four days, tail vein; in two weeks
Description: To determine the toxicity in vivo, liposomal vehicle, free or L-BORT was administrated through the tail vein to normal BALB/cByJ mice (6-8 weeks old, 22 ± 5 g) in a small volume (0.2 ml) at normal pressure. The dose used was 2.5 mg/kg every four days.

[4] = Pharmacokinetics after tail vein injection, plasma BORT by ICP-OES; conditions: ICR mice, 1.0 mg/kg i.v. tail vein, mean (%CV), n=5
Description: as §1, §2

| Structure (SMILES) | BCR/ABL expression ([1]; K562, various doses, 48 hours) | IC50 (K562 single tumor cells; 48 hours) | IC50 (K562 single tumor cells; Homo sapiens, K562, 48 h) | IC50 (K562/DOX cells) | Sp1 and BCR/ABL protein expression ([1]; K562, different doses of BORT for 24 hours) | clinical efficacy (imatinib-refractory CML) | clinical toxicity (imatinib-refractory CML) | IC50 (K562 cells; 48 hours) | IC50 (K562 cells; Homo sapiens, K562, 48 h) | Sp1 and BCR/ABL protein expression [2] | AUC(0-inf) (in vivo) | Cmax (in vivo) | clearance (in vivo) | half-life (in vivo) | mice died [3] | AUCinf ([4]; 1 mg/kg) | CL ([4]; total body clearance) | V ([4]; volume of distribution) |
| --- | --- | --- | --- | --- | --- | --- | --- | --- | --- | --- | --- | --- | --- | --- | --- | --- | --- | --- |
| COc1cccc2c1C(=O)c1c(O)c3c(c(O)c1C2=O)C[C@@](O)(C(=O)CO)C[C@@H]3O[C@H]1C[C@H](N)[C@H](O)[C@H](C)O1 [DOX, doxorubicin] | dose-dependently downregulated | 17.1 ± 0.534 µM | 17 µM | 20.2 ± 8.75 µM | – | – | – | – | – | – | – | – | – | – | – | – | – | – |
| CC(C)C[C@H](NC(=O)[C@H](Cc1ccccc1)NC(=O)c1cnccn1)B(O)O [Free BORT, bortezomib] | – | – | – | – | inhibition of Sp1 and BCR/ABL protein expression | minimal efficacy | considerable toxicity | 0.0393 ± 0.00227 µM | 0.039 µM | inhibition of Sp1 and BCR/ABL protein expression | 469 ng·h/mL | 758 ng/mL | 25.2 mL/min/kg | 12.4 h | 50% | 0.661 (12.8%) μg·hr/mL | 1.51 (17.9%) L/hr/kg | 27.1 (17.6%) L/kg |
